This is an account of results in PubChem BioAssay (NCI).

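Growth conditions: 96-well plates. Treatment: test compound, 48 hours, 5 concentrations. Analysis: linear interpolation between bracketing concentrations; unreached endpoints set to highest concentration. GI50 = concentration required for 50% inhibition of growth. TGI is the concentration that stops growth completely.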

Among the test systems are 786-0 renal; A498 renal; HT29 colon; NCI/ADR-RES ovarian; SF-268 CNS; SF-539 CNS; SK-MEL-5 melanoma; TK-10 renal; U251 CNS; M14 melanoma.
Common to all, as to experiment: DTP human tumour cell line panel, 48 h

What is called GI50 is the concentration that inhibits growth by half. Usually TGI stands for the concentration at which net growth stops. A lower TGI goes with greater sensitivity of the cells. For the compound `COc1ccc(/C=C2\SC(=Nc3ccccc3)NC2=O)cc1`, the GI50 in the experiment with 786-0 renal is 8.25 µM; with A498 renal, 1.08 µM; with HT29 colon, 4.38 µM; in the experiment on NCI/ADR-RES ovarian, 4.61 µM; in the experiment with SF-268 CNS, 8.18 µM; with SF-539 CNS, 3.6 µM. In addition, the GI50 in the experiment with SK-MEL-5 melanoma was 7.63 µM; in the experiment with TK-10 renal it was 41.4 µM; in the experiment with U251 CNS, 3.98 µM. Also, the TGI in the experiment with 786-0 renal was 30.1 µM; in the experiment with A498 renal, 7.34 µM; in the experiment with HT29 colon it was 19.5 µM; in the experiment on NCI/ADR-RES ovarian it was over 100 µM; in the experiment on SF-268 CNS, 88.3 µM; in the experiment on SF-539 CNS it was 15.1 µM. In addition, the TGI with SK-MEL-5 melanoma was 30.5 µM; in the experiment with TK-10 renal, over 100 µM; in the experiment on U251 CNS it was 16.3 µM.
`CCOC1NC(=O)Oc2cc3ccccc3cc21` (centres undefined): the TGI with 786-0 renal, with HT29 colon, in the experiment with M14 melanoma, in the experiment on NCI/ADR-RES ovarian, with SF-268 CNS and in the experiment with SF-539 CNS was over 100 µM throughout. Besides, the TGI with SK-MEL-5 melanoma, in the experiment with TK-10 renal and in the experiment with U251 CNS was over 100 µM in each case.
As for `Nc1nc(SCc2ccccc2Cl)cc(C(=O)O)n1`, the TGI in the experiment on 786-0 renal, with A498 renal, in the experiment on HT29 colon, in the experiment with M14 melanoma, with NCI/ADR-RES ovarian and in the experiment on SF-268 CNS was over 100 µM in each case. The TGI with SK-MEL-5 melanoma, in the experiment on TK-10 renal and in the experiment on U251 CNS was over 100 µM each time.
For `N#C/C(=N\Nc1ccccc1)C(=O)Nc1cc(-c2ccccc2)nn1-c1ccccc1`, the GI50 was 3.04 µM with 786-0 renal; 3.2 µM in the experiment on HT29 colon; 2.68 µM with M14 melanoma; 2.83 µM with NCI/ADR-RES ovarian; 3.85 µM in the experiment on SF-268 CNS; 3.3 µM in the experiment on SF-539 CNS. In addition, the GI50 was 1.54 µM with SK-MEL-5 melanoma, 4.27 µM in the experiment with TK-10 renal and 3.14 µM in the experiment on U251 CNS. In addition, the TGI is 16.3 µM in the experiment with 786-0 renal; 17.3 µM with HT29 colon; over 100 µM with M14 melanoma; 30.2 µM in the experiment on NCI/ADR-RES ovarian; over 100 µM in the experiment with SF-268 CNS; 19.7 µM in the experiment with SF-539 CNS. Moreover, the values for the TGI in the experiment on SK-MEL-5 melanoma, in the experiment on TK-10 renal and in the experiment on U251 CNS were 4.86 µM, over 100 µM and 16 µM, respectively.
As for `COc1cc(C(=O)O[C@H](C(=O)NCCN(C)CCNC(=O)[C@@H](OC(=O)c2cc(OC)cc3c(C)cccc23)[C@]2(C)CO2)[C@]2(C)CO2)c2cccc(C)c2c1`, the TGI is 0.179 µM with 786-0 renal; 2.82 µM in the experiment on A498 renal; over 27 µM in the experiment with HT29 colon; 1.3 µM with NCI/ADR-RES ovarian; 0.929 µM in the experiment with SF-268 CNS; 0.0504 µM with SF-539 CNS. The TGI in the experiment with SK-MEL-5 melanoma was determined as 0.178 µM; in the experiment on TK-10 renal it was 1.57 µM; in the experiment with U251 CNS, 0.0139 µM. Also, the GI50 in the experiment with A498 renal was 0.888 µM; in the experiment on HT29 colon, under 0.0184 µM; in the experiment with NCI/ADR-RES ovarian it was under 0.0506 µM; in the experiment with SF-268 CNS, under 0.01 µM; with SF-539 CNS, under 0.01 µM; in the experiment with SK-MEL-5 melanoma, 0.0173 µM. Moreover, the GI50 was 0.348 µM with TK-10 renal and under 0.01 µM with U251 CNS.
In the case of `Cc1ccc(S(=O)(=O)c2ccc(C)cc2[N+](=O)[O-])cc1`, the TGI with 786-0 renal, with A498 renal, in the experiment on HT29 colon, in the experiment with M14 melanoma, with SF-268 CNS and in the experiment with SF-539 CNS was over 100 µM each time. The values for the TGI in the experiment with SK-MEL-5 melanoma, with TK-10 renal and in the experiment on U251 CNS were 76.8 µM, over 100 µM and over 100 µM, respectively.
In the case of `COC1=CC(c2ccc[nH]2)=N/C1=C\c1[nH]c(C)c(CC(=O)OCc2ccccc2)c1C`, the GI50 in the experiment with 786-0 renal was 0.299 µM; in the experiment on A498 renal it was 0.433 µM; in the experiment with HT29 colon, 0.205 µM; in the experiment with M14 melanoma, 0.233 µM; with NCI/ADR-RES ovarian it was 0.444 µM; in the experiment with SF-268 CNS, 0.358 µM. In addition, the figures for the GI50 with TK-10 renal and in the experiment with U251 CNS were 0.351 µM and 0.319 µM, respectively. Moreover, the TGI with 786-0 renal came to 1.19 µM; in the experiment with A498 renal it was 2.3 µM; in the experiment with HT29 colon, 1.41 µM; with M14 melanoma it was 0.59 µM; in the experiment on NCI/ADR-RES ovarian it was 1.97 µM; with SF-268 CNS it was 2.56 µM. The TGI in the experiment on TK-10 renal was 2.11 µM; in the experiment with U251 CNS it was 1.73 µM.
On to `CCn1c2c(c3ccccc31)[C@@H](c1ccc(Cl)cc1)CC1C(=O)N(c3ccccc3)C(=O)C21` (some centres undefined), for which the TGI was over 100 µM with 786-0 renal; over 100 µM with A498 renal; over 100 µM with HT29 colon; over 100 µM in the experiment with M14 melanoma; over 100 µM in the experiment with SF-268 CNS; 97.1 µM with SF-539 CNS. The TGI in the experiment with SK-MEL-5 melanoma, with TK-10 renal and in the experiment with U251 CNS was over 100 µM in each case.
As for `CC1(C)C2CCC1C(=O)[C@@]1(C=CC(=O)CC1)C2` (some centres undefined), the TGI in the experiment on 786-0 renal, with HT29 colon, with M14 melanoma, with NCI/ADR-RES ovarian, in the experiment on SF-268 CNS and with SF-539 CNS was over 100 µM each time. In addition, the concentration for total growth inhibition (TGI) with SK-MEL-5 melanoma, with TK-10 renal and in the experiment on U251 CNS was over 100 µM each time.
In the case of `O=C1C=Cc2c1ccc1ccccc21`, the GI50 with 786-0 renal was 21.3 µM; in the experiment with HT29 colon, 58.8 µM; in the experiment on M14 melanoma, 18.9 µM; in the experiment with NCI/ADR-RES ovarian it was 31.9 µM; with SF-268 CNS it was 28.3 µM; in the experiment on SK-MEL-5 melanoma, 21.1 µM. Besides, the GI50 with TK-10 renal was 15.9 µM; in the experiment on U251 CNS, 24.5 µM. In addition, the TGI was 65.2 µM with 786-0 renal; over 100 µM in the experiment on HT29 colon; 60.3 µM in the experiment with M14 melanoma; over 100 µM in the experiment on NCI/ADR-RES ovarian; over 100 µM in the experiment with SF-268 CNS; 71 µM with SK-MEL-5 melanoma. The TGI in the experiment on TK-10 renal is 54.9 µM; in the experiment on U251 CNS, over 100 µM.
Take `C1CN(P2(N3CC3)=NP(N3CC3)(N3CC3)=NP(N3CC3)(N3CC3)=N2)CCO1` (centres undefined): the TGI in the experiment on 786-0 renal, in the experiment on A498 renal, with HT29 colon, in the experiment on M14 melanoma, in the experiment with SF-268 CNS and in the experiment with SF-539 CNS was over 100 µM throughout. For the same compound, the TGI in the experiment with SK-MEL-5 melanoma, with TK-10 renal and in the experiment on U251 CNS was over 100 µM each time.
